{"source": "DBAASP", "assay_in_all_cases": "≥ marks a high value that may be exact or a test limit, other limits are often not marked, values filed in µg/mL are converted to µM", "key": {"[1]": {"test_system": "Lactiplantibacillus plantarum 8014"}, "[2]": {"test_system": "Staphylococcus epidermidis ATCC 12228"}, "[3]": {"test_system": "Lacticaseibacillus rhamnosus 7469"}, "[4]": {"test_system": "Pseudomonas aeruginosa ATCC 27853"}, "[5]": {"test_system": "Staphylococcus aureus ATCC 43300"}, "[6]": {"test_system": "Lacticaseibacillus rhamnosus 1.0385"}, "[7]": {"test_system": "Lacticaseibacillus rhamnosus 1.0386"}, "Escherichia coli UB1005": {"test_system": "Escherichia coli UB1005"}, "[8]": {"test_system": "Lacticaseibacillus rhamnosus 1.0911"}, "[9]": {"test_system": "Lacticaseibacillus rhamnosus 1.0925"}, "[10]": {"test_system": "Staphylococcus aureus ATCC 25923"}, "[11]": {"test_system": "Escherichia coli ATCC 25922"}, "[12]": {"test_system": "Acinetobacter baumannii BCRC 14B0100"}, "[13]": {"test_system": "Klebsiella pneumoniae ATCC 13866"}, "[14]": {"test_system": "Escherichia coli ATCC 11229"}, "[15]": {"test_system": "Staphylococcus aureus ATCC 33591"}, "[16]": {"test_system": "Staphylococcus aureus ATCC 29213"}, "[17]": {"test_system": "Staphylococcus aureus ATCC 12600"}, "[18]": {"test_system": "Staphylococcus aureus ATCC BAA-2312"}, "[19]": {"test_system": "Escherichia coli ATCC 35218"}, "[20]": {"test_system": "Klebsiella pneumoniae ATCC BAA-2814"}, "[21]": {"test_system": "Enterococcus faecalis ATCC 51299"}, "[22]": {"test_system": "Klebsiella pneumoniae ATCC 49472"}, "[23]": {"test_system": "Salmonella enterica subsp. enterica serovar Typhimurium ATCC 14028"}, "Cladosporium sp.": {"test_system": "Cladosporium sp."}, "Penicillium expansum": {"test_system": "Penicillium expansum"}, "Escherichia coli SBS 363": {"test_system": "Escherichia coli SBS 363"}, "Cryptococcus neoformans": {"test_system": "Cryptococcus neoformans"}, "Micrococcus luteus A270": {"test_system": "Micrococcus luteus A270"}, "[24]": {"test_system": "Staphylococcus epidermidis NBRC 12993"}, "[25]": {"test_system": "Micrococcus luteus NBRC 3333"}, "[26]": {"test_system": "Candida viswanathii NBRC 10321"}, "[27]": {"test_system": "Escherichia coli NBRC 3972"}, "[28]": {"test_system": "Aspergillus oryzae NBRC 100959"}, "[29]": {"test_system": "Pseudomonas putida NBRC 100650"}}, "note": "“And” between values parts separate entries of the source, which are not always exact repeats. Equal values may be shown once.", "data": [{"compound": "NC(=O)[C@H](CCCN=C(N)N)NC(=O)[C@H](CCCN=C(N)N)NC(=O)[C@H](Cc1c[nH]c2ccccc12)NC(=O)[C@H](CO)NC(=O)[C@H](Cc1c[nH]c2ccccc12)NC(=O)[C@H](Cc1c[nH]c2ccccc12)NC(=O)[C@H](Cc1c[nH]c2ccccc12)NC(=O)[C@H](CO)NC(=O)[C@H](Cc1c[nH]c2ccccc12)NC(=O)[C@H](CCCN=C(N)N)NC(=O)[C@@H](N)CCCN=C(N)N", "note": "[RRWSWWWSWRR]", "values": [{"measurement": "MIC", "setting": "[1]", "result": "≥ 64", "unit": "µM"}, {"measurement": "MIC", "setting": "[2]", "result": 4, "unit": "µM"}, {"measurement": "MIC", "setting": "[3]", "result": "≥ 64", "unit": "µM"}, {"measurement": "MIC", "setting": "[4]", "result": 4, "unit": "µM"}, {"measurement": "MIC", "setting": "[5]", "result": 2, "unit": "µM"}, {"measurement": "MIC", "setting": "[6]", "result": "≥ 64", "unit": "µM"}, {"measurement": "MIC", "setting": "[7]", "result": "≥ 64", "unit": "µM"}, {"measurement": "MIC", "setting": "Escherichia coli UB1005", "result": 2, "unit": "µM"}, {"measurement": "MIC", "setting": "[8]", "result": "≥ 64", "unit": "µM"}, {"measurement": "MIC", "setting": "[9]", "result": "≥ 64", "unit": "µM"}]}, {"compound": "CC[C@H](C)[C@H](NC(=O)[C@H](CCCN=C(N)N)NC(=O)[C@H](CCC(N)=O)NC(=O)[C@@H](NC(=O)[C@@H](NC(=O)[C@H](CCCN=C(N)N)NC(=O)[C@H](CCCCN)NC(C)=O)[C@@H](C)CC)C(C)C)C(=O)N[C@@H](CCCCN)C(=O)N[C@@H](CC(=O)O)C(=O)N[C@@H](Cc1ccccc1)C(=O)N[C@@H](CC(C)C)C(=O)N[C@@H](CCCN=C(N)N)C(=O)N[C@@H](C)C(=O)NCC(=O)N1CCC[C@H]1C(=O)N[C@@H](CCCN=C(N)N)C(=O)N[C@@H](CCCN=C(N)N)C(=O)N[C@@H](Cc1c[nH]c2ccccc12)C(=O)N[C@@H](Cc1c[nH]c2ccccc12)C(=O)N[C@@H](CCCN=C(N)N)C(=O)N[C@@H](Cc1c[nH]c2ccccc12)C(N)=O", "note": "[KRIVQRIKDFLRAGPRRWWRW]", "values": [{"measurement": "MIC", "setting": "[10]", "result": "1.42 µM and 0.708 µM"}, {"measurement": "MIC", "setting": "[4]", "result": "0.708 µM and 1.42 µM"}, {"measurement": "MIC", "setting": "[11]", "result": "1.42 µM and 0.708 µM"}, {"measurement": "MIC", "setting": "[12]", "result": "0.708 µM and 1.42 µM"}]}, {"compound": "CC[C@H](C)[C@H](NC(=O)CN)C(=O)N[C@@H](C)C(=O)NCC(=O)N[C@@H](CC(C)C)C(=O)N[C@@H](CC(C)C)C(=O)N[C@@H](CCCN=C(N)N)C(=O)N[C@@H](CO)C(=O)N[C@@H](Cc1ccccc1)C(=O)N[C@H](C(=O)N[C@@H](CCCN=C(N)N)C(=O)N[C@@H](CCSC)C(=O)N[C@@H](CC(C)C)C(=O)N[C@@H](C)C(=O)N[C@@H](CCCCN)C(=O)N[C@H](C(=O)N[C@@H](CCSC)C(=O)NCC(=O)NCC(=O)O)[C@@H](C)CC)C(C)C", "note": "[GIAGLLRSFVRMLAKIMGG]", "values": [{"measurement": "MIC", "setting": "[13]", "result": "≥ 32.2", "unit": "µM"}, {"measurement": "MIC", "setting": "[14]", "result": "≥ 32.2", "unit": "µM"}, {"measurement": "MIC", "setting": "[10]", "result": 32.2, "unit": "µM"}, {"measurement": "MIC", "setting": "[2]", "result": 32.2, "unit": "µM"}, {"measurement": "MIC", "setting": "[4]", "result": 8.04, "unit": "µM"}, {"measurement": "MIC", "setting": "[15]", "result": "≥ 64.3", "unit": "µM"}, {"measurement": "MIC", "setting": "[16]", "result": 32.2, "unit": "µM"}]}, {"compound": "CC[C@H](C)[C@H](NC(=O)[C@H](CCC(N)=O)NC(=O)[C@H](CO)NC(=O)[C@H](C)NC(=O)[C@H](CC(C)C)NC(=O)[C@H](Cc1cnc[nH]1)NC(=O)[C@@H](NC(=O)[C@H](CC(C)C)NC(=O)[C@H](CC(C)C)NC(=O)CNC(=O)[C@H](CCCCN)NC(=O)CNC(=O)[C@H](C)NC(=O)CNC(=O)[C@H](CCCCN)NC(=O)[C@H](CC(C)C)NC(=O)[C@H](CC(C)C)NC(=O)[C@H](CC(=O)O)NC(=O)[C@H](CC(C)C)NC(=O)[C@H](CC(C)C)NC(=O)CN)[C@@H](C)O)C(N)=O", "note": "[GLLDLLKGAGKGLLTHLASQI]", "values": [{"measurement": "MIC", "setting": "[17]", "result": "≥ 250", "unit": "µM"}, {"measurement": "MIC", "setting": "[18]", "result": "≥ 250", "unit": "µM"}, {"measurement": "MIC", "setting": "[19]", "result": "≥ 62.5", "unit": "µM"}, {"measurement": "MIC", "setting": "[20]", "result": "≥ 125", "unit": "µM"}, {"measurement": "MIC", "setting": "[21]", "result": "≥ 250", "unit": "µM"}, {"measurement": "MIC", "setting": "[22]", "result": "≥ 125", "unit": "µM"}, {"measurement": "MIC", "setting": "[23]", "result": 250, "unit": "µM"}]}, {"compound": "CSCC[C@H](NC(=O)CNC(=O)[C@H](Cc1ccccc1)NC(=O)[C@H](Cc1ccccc1)NC(=O)CNC(=O)[C@H](C)NC(=O)[C@H](C)NC(=O)[C@@H]1CCCN1C(=O)[C@H](C)N)C(=O)N[C@@H](CCCN=C(N)N)C(=O)O", "note": "[APAAGFFGMR]", "values": [{"measurement": "MIC", "setting": "Cladosporium sp.", "result": "≥ 164", "unit": "µM"}, {"measurement": "MIC", "setting": "[4]", "result": "164 µM and > 82 µM"}, {"measurement": "MIC", "setting": "Penicillium expansum", "result": "≥ 164", "unit": "µM"}, {"measurement": "MIC", "setting": "Escherichia coli SBS 363", "result": "≥ 82", "unit": "µM"}, {"measurement": "MIC", "setting": "Cryptococcus neoformans", "result": "≥ 164", "unit": "µM"}, {"measurement": "MIC", "setting": "Micrococcus luteus A270", "result": "≥ 164", "unit": "µM"}]}, {"compound": "CC[C@H](C)[C@H](NC(=O)[C@H](CCCCN)NC(=O)[C@@H](N)CCCN=C(N)N)C(=O)N[C@@H](CCCCN)C(=O)N[C@H](C(=O)N[C@@H](Cc1ccc(O)cc1)C(=O)N[C@@H](CC(C)C)C(=O)N[C@@H](CCCN=C(N)N)C(=O)N[C@@H](CCCN=C(N)N)C(=O)N[C@@H](CCSC)C(=O)N[C@@H](CCCCN)C(=O)O)C(C)C", "note": "[RKIKVYLRRMK]", "values": [{"measurement": "MIC", "setting": "[24]", "result": "≥ 33.5", "unit": "µM"}, {"measurement": "MIC", "setting": "[25]", "result": 8.38, "unit": "µM"}, {"measurement": "MIC", "setting": "[26]", "result": 8.38, "unit": "µM"}, {"measurement": "MIC", "setting": "[27]", "result": 8.38, "unit": "µM"}, {"measurement": "MIC", "setting": "[28]", "result": 8.38, "unit": "µM"}, {"measurement": "MIC", "setting": "[29]", "result": "≥ 33.5", "unit": "µM"}]}]}
